Laboratory results as given in patent publication US20100015258A1, “Rice Bran Extracts and Methods of Use Thereof” (priority 2008, published 2010).
Where two headings read alike, the source gives them in different places.

How the values were obtained:
[1] = molecular target: T1, Fatty Acid Binding Protein 4 (FABP4) (Homo sapiens, UniProt P15090); assay: FABP4 Inhibitor/Ligand Screening Kit (fluorescence); conditions: based on contribution across all actives, read-out: Predicted IC50
T1 construct: purchased Cayman, Ann Arbor, Mich
Method: Fatty Acid Binding Protein 4 (FABP4) inhibition was determined using the Fatty Acid Binding Protein 4 (FABP4) Inhibitor/Ligand Screening Kit (Cayman, Ann Arbor, Mich.). […] Potential inhibitors/ligands of the FABP4 protein were incubated to FABP4 in assay buffer for 15 minutes at room temperature. Arachidonic acid was used as a known inhibitor standard for comparison. The positive control wells received no inhibitor/ligand (i.e., no arachidonic acid or extract) and the negative control wells received no FABP4. The extracts, in solution, were then exposed to a developer that will fluoresce when bound to FABP4. If FABP4 is inhibited, reduction in fluorescence yield is observed. Fluorescence was quantified using a Synergy 4 plate reader that is tuned to excitation/emission wavelengths of 370 nm and 475 nm, respectively. The fluorescence of the negative controls was subtracted from the positive control wells, and the fluorescence from the “undetected” wells was subtracted from the corresponding “detected” wells. An IC50 value was determined based on the percent fluorescence of the corrected extract wells relative to the corrected positive controls.

3T3-L1 cells = assay: [1,2-3H]2-Deoxy-D-glucose (2-deoxyglucose) uptake; type: cell-based; conditions: for CPM (glucose uptake): 3T3-L1 cells
Method: 1. [1,2-^3H]2-Deoxy-D-glucose (2-deoxyglucose) Uptake: Cells, 3T3-L adipocytes, were grown and differentiated as described below. Prior to [^3H]2-deoxyglucose uptake, cells were switched to DMEM with 0.1% bovine serum albumin for 6 h. The [^3H]2-deoxyglucose uptake was assayed as described (D. R. Cooper, J. E. Watson, N. Patel, P. Illingworth, M. Cevedo-Duncan, J. Goodnight, C. E. Chalfant, and H. Mischak, 1999. Ectopic expression of protein kinase CbetaII, -delta, and -epsilon, but not-betaI or -zeta, provide for insulin stimulation of glucose uptake in NIH-3T3 cells. Arch. Biochem. Biophys., 372:69-79; T. P Ciraldi, O. G. Kolterman, and J. M. Olesky, 1981. Mechanism of the postreceptor defect in insulin action in human obesity: decrease in glucose transport system activity. J. Clin Invest., 68:875-880.). […] Uptake was measured by the addition of 10 nmol of [^3H] 2-deoxyglucose (50-150 μCi/μmol) and followed by incubation for 6 min at 37° C. The uptake was terminated by aspiration of media and cell monolayers were washed three times with cold DPBS. Cells were lysed with 1 ml of 1% (w/v) SDS, and radioactivity determined by liquid scintillation counting. The 2-Deoxyglucose uptake refers to transport of the analogue across the plasma membrane operating in tandem with its phosphorylation by hexokinase.

[2] = range across SRB Extracts 1 to 14

T1 sequence (P15090 whole entry, species assumed): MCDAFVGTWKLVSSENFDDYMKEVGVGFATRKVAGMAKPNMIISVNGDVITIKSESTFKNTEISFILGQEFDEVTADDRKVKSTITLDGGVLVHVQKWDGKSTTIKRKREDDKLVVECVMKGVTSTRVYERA

Row | Compound | IC50 ([1]; in SRB Extract 6) [µM] | IC50 [1, 2] [µM] | other results
1 | 4,5-Dihydro-4-hydroxy-5-methyl-2-tetradecyl-2(3H)-furanone | 73.3 | 61 to 85 | 
2 | 24-Nor-4(23),9(11)-fernadiene |  | 29.9 to 61.3 | 
3 | CCCCCCCCCCCCCCCCCCCCCCCCCCCCCCOC(=O)C=Cc1ccc(O)c(O)c1 [3-(3,4-Dihydroxyphenyl)-2-propenoicacid Triacontyl ester] | 29.7 | 7.99 to 101 | 
4 | CCCCCCCCC=CCCCCCCCC1CC(O)C(=O)O1 (centres unmarked) [5-(8-Heptadecenyl)dihydro-3-hydroxy-2(3H)-furanone] | 96.8 | 38.9 to 117 | 
5 | CC1(C)CCC2(C)CCC3(C)C(=C2C1)C=CC1C2(C)CCCC(C)(C)C2CCC13C (centres unmarked) [11,13(18)-Oleanadiene] | 91 | 28.3 to 90.3 | 
6 | C=C(CCC(C)C1CCC2(C)C3CCC4CC(O)CCC45CC35CCC12C)C(C)C (centres unmarked) [14-Methyl-9,19-cycloergost-24(28)-en-3-ol] | 60.5 | 21.3 to 25.7 | 
7 | CC1CCC2(C)CCC3(C)C(=CCC4C5(C)CCCC(C)C5CCC43C)C2C1C (centres unmarked) [24-Nor-12-ursene] | 199 | 17.4 to 160 | 
8 | CC(=O)CC/C=C(\C)CC/C=C(\C)CC/C=C(\C)CC/C=C(\C)CC/C=C(\C)CC/C=C(\C)CC/C=C(\C)CCC=C(C)C [Bombiprenone] | 26.5 | 6.96 to 81.2 | 
9 | CCCCC/C=C\C/C=C\CCCCCCCC(=O)OCC(CO)OC(=O)CCCCCCC/C=C\C/C=C\CCCCC (centres unmarked) [Glycerol 1,2-di-(9Z,12Z-octadecadienoate)] | 24.7 | 4.89 to 56 | 
10 | CCCCCCCCCCCC/C=C\CC/C=C\CC[C@@H](O)[C@H](O)CCCCCCCCCCC1=C[C@H](C)OC1=O [Montecristin] | 40 | 17.4 to 69.5 | 
11 | CC[C@H]1CC[C@H]2[C@@H]3CC(O)C4CC(O)C(O)C[C@]4(C)[C@H]3CC[C@]12C (some centres unmarked) [Pregnane-2,3,6-triol] | 69.4 | 44.2 to 80.4 | 
12 | Insulin: insulin, comparator for glucose uptake stimulation |  |  | Increase over 200 nM Insulin (3T3-L1 cells; 50 nM insulin): 0.6; Increase over Control (3T3-L1 cells; 50 nM insulin): 1.1; Max CPM (3T3-L1 cells; 50 nM insulin): 149 CPM; Increase over 200 nM Insulin (3T3-L1 cells; 100 nM insulin): 0.6; Increase over Control (3T3-L1 cells; 100 nM insulin): 1.2; Max CPM (3T3-L1 cells; 100 nM insulin): 157 CPM; Increase over Control (3T3-L1 cells; 200 nM insulin): 2.0; Max CPM (3T3-L1 cells; 200 nM insulin): 266 CPM; CPM (glucose uptake) (3T3-L1 cells; insulin 50 nM): 149 CPM; CPM (glucose uptake) (3T3-L1 cells; insulin 100 nM): 157 CPM; CPM (glucose uptake) (3T3-L1 cells; insulin 200 nM): 266 CPM
